Test results from PubChem BioAssay (NCI).
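A five-concentration, 48-hour dose response in 96-well plates underlies each endpoint, interpolated linearly between surrounding concentrations. GI50 is the concentration that inhibits growth by half. At the TGI there is no net growth.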

Legend:
Experiment in all cases: NCI anticancer screen, dose series, 48 h
U251 CNS = tested on: U251 CNS
HOP-62 NSCLC = tested on: HOP-62 NSCLC
T-47D breast = tested on: T-47D breast
RPMI-8226 leukemia = tested on: RPMI-8226 leukemia
M14 melanoma = tested on: M14 melanoma
HS 578T breast = tested on: HS 578T breast
MDA-MB-231 breast = tested on: MDA-MB-231 breast
CCRF-CEM leukemia = tested on: CCRF-CEM leukemia
OVCAR-3 ovarian = tested on: OVCAR-3 ovarian
MDA-N = tested on: MDA-N

Structure (SMILES)	TGI (U251 CNS)	TGI (HOP-62 NSCLC)	TGI (T-47D breast)	TGI (RPMI-8226 leukemia)	TGI (M14 melanoma)	TGI (HS 578T breast)	TGI (MDA-MB-231 breast)	TGI (CCRF-CEM leukemia)	TGI (OVCAR-3 ovarian)	GI50 (OVCAR-3 ovarian)	GI50 (U251 CNS)	GI50 (HOP-62 NSCLC)	GI50 (T-47D breast)	GI50 (RPMI-8226 leukemia)	GI50 (M14 melanoma)	GI50 (HS 578T breast)	GI50 (MDA-MB-231 breast)	GI50 (CCRF-CEM leukemia)	TGI (MDA-N)
CCOc1ccc2ccccc2c1NC1=NCCO1	> 100 µM	74.2 µM	> 100 µM	59.4 µM	> 100 µM	78.2 µM	> 100 µM	> 100 µM	–	–	–	–	–	–	–	–	–	–	–
O=S(=O)(c1cc(Cl)ccc1Cl)N1CCN(c2ccc(Cl)c(Cl)c2)CC1	54.8 µM	39.6 µM	> 100 µM	> 100 µM	> 100 µM	> 100 µM	> 100 µM	> 100 µM	38.5 µM	–	–	–	–	–	–	–	–	–	–
COc1ccc(/C=C2\CN(C(=O)CCN3CCC(=NO)CC3)C/C(=C\c3ccc(OC)cc3)C2=O)cc1	3.47 µM	4.59 µM	8.91 µM	3.79 µM	4.54 µM	18.6 µM	4.55 µM	18.9 µM	3.56 µM	1.89 µM	1.74 µM	2.03 µM	2.57 µM	0.648 µM	2.04 µM	3.64 µM	2.11 µM	3.05 µM	–
O=C1Nc2cccc3ncn(c23)C2=C1CCCC2	> 100 µM	–	–	> 100 µM	–	–	–	> 100 µM	–	–	–	–	–	–	–	–	–	–	–
O=C1CC2CC=C[C@H]3c4cc5c(cc4C(=O)N1C23)OCO5 (stereo partly specified)	> 50 µM	> 50 µM	–	> 50 µM	> 50 µM	–	–	> 50 µM	> 50 µM	–	–	–	–	–	–	–	–	–	–
CC(=O)Oc1c(C)cc(-c2cc(C)c(OC(C)=O)c(C)c2)cc1C	39.5 µM	> 100 µM	–	> 100 µM	> 100 µM	60.1 µM	–	> 100 µM	> 100 µM	–	–	–	–	–	–	–	–	–	25.6 µM
O=C(O)C(CS)NCc1c2ccccc2[n+]([O-])c2ccccc12 (stereo unspecified)	> 100 µM	> 100 µM	–	92.4 µM	> 100 µM	–	–	80.8 µM	> 100 µM	–	–	–	–	–	–	–	–	–	–
S=C(NNC1=NCCCN1)Nc1ccccc1	> 100 µM	> 100 µM	> 100 µM	79 µM	–	> 100 µM	–	> 100 µM	> 100 µM	–	–	–	–	–	–	–	–	–	–
CC12CC3CC/C(=N\O)C(C1)C3(N1CCOCC1)C/C2=N/O (stereo unspecified)	> 100 µM	> 100 µM	> 100 µM	–	> 100 µM	–	> 100 µM	> 100 µM	> 100 µM	–	–	–	–	–	–	–	–	–	> 100 µM
CC(=O)Oc1ccc(N2C(=O)C3c4[nH]c5ccccc5c4C4CCC(C(C)(C)C)CC4C3C2=O)cc1 (stereo unspecified)	11.1 µM	13.5 µM	–	> 100 µM	13.2 µM	8.82 µM	4.63 µM	13.2 µM	7.07 µM	–	–	–	–	–	–	–	–	–	14.1 µM
CC(O)c1c2c(cc3c1CC1(C3)Cc3cc4c(c(C(C)O)c3C1)CCC4)CCC2 (stereo unspecified)	29.3 µM	38.8 µM	53.7 µM	38.5 µM	35.2 µM	52.8 µM	34.8 µM	22.1 µM	29.4 µM	–	–	–	–	–	–	–	–	–	–
O=C(c1ccccc1)c1nn(-c2ccc(Cl)cc2)c2nc3nc(-c4ccccc4)cc(=O)n3nc12	> 100 µM	> 100 µM	> 100 µM	> 100 µM	> 100 µM	> 100 µM	> 100 µM	> 100 µM	77.8 µM	24.5 µM	31.5 µM	32.3 µM	65.9 µM	28.8 µM	31.6 µM	28.9 µM	26 µM	3.58 µM	–
O=C1C=C(N2CCCC2)C=C(N2CCCC2)C1	> 100 µM	> 100 µM	–	> 100 µM	> 100 µM	–	–	> 100 µM	> 100 µM	–	–	–	–	–	–	–	–	–	–
O=c1[nH]c2cc(C(F)(F)F)ccc2nc1Cc1ccccc1	> 100 µM	95.9 µM	> 100 µM	> 100 µM	> 100 µM	> 100 µM	83.6 µM	> 100 µM	–	–	–	–	–	–	–	–	–	–	–
COc1ncnc2c1cnn2Cc1cn(COCC(O)CO)nn1 (stereo unspecified)	> 100 µM	> 100 µM	> 100 µM	> 100 µM	> 100 µM	–	> 100 µM	> 100 µM	> 100 µM	–	–	–	–	–	–	–	–	–	> 100 µM
CCOC(=O)N1CCN(Cc2cc(=O)n3cc(C)ccc3n2)CC1	> 100 µM	> 100 µM	–	> 100 µM	> 100 µM	> 100 µM	> 100 µM	> 100 µM	> 100 µM	–	–	–	–	–	–	–	–	–	> 100 µM
CCOc1ccc(N2C(=O)C3c4[nH]c5ccccc5c4C4CCC(C(C)(C)C)CC4C3C2=O)cc1 (stereo unspecified)	> 100 µM	> 100 µM	–	> 100 µM	> 100 µM	–	–	> 100 µM	–	–	–	–	–	–	–	–	–	–	–
COc1cc(C2CC(c3cccc(Nc4ccncc4)c3)=NN2c2cc(Cl)cc(Cl)c2)cc(OC)c1OC (stereo unspecified)	–	–	–	–	3.36 µM	–	–	–	3.21 µM	1.73 µM	–	–	–	–	1.75 µM	–	–	–	–
CCOC(=O)c1cccc(NC(=O)CBr)c1	1.89 µM	3.41 µM	–	3.74 µM	2.75 µM	5.28 µM	3.51 µM	–	3.34 µM	–	–	–	–	–	–	–	–	–	2.82 µM
COc1cc2cc(Oc3ccc(NC(=O)Nc4ccc(F)c(C(F)(F)F)c4)cc3)c(C)nc2cc1OCCN1CCCCC1	–	–	–	–	3.53 µM	–	3.19 µM	4.01 µM	3.44 µM	1.87 µM	–	–	–	–	1.81 µM	–	1.67 µM	1.57 µM	–
